Source: patent US20070281992A1, “COMBINATION OF GYRASE B INHIBITORS AND PROTEIN SYNTHESIS INHIBITORS AND USES THEREOF” (priority 2006, published 2007)
Where two headings read alike, the source gives them in different places.

What was measured:
[1] = tested on: Unconfirmed Vancomycin-intermediate Staphylococcus aureus Isolates; assay: MIC assay (NCCLS broth dilution), unconfirmed VISA isolates; format: cell-based; conditions: for MIC Range / MIC50: 6 unconfirmed VISA isolates (vancomycin MIC 4 ug/ml), combinations at 2.5:1; for MIC / MIC50: Staphylococcus aureus; for MIC: read-out: Minimal Inhibitory Concentration
Experimental: (§1) Antibiotics: novobiocin, tetracycline, minocycline, oxacillin, and vancomycin were all purchased from Sigma-Aldrich. Linezolid was obtained from Pfizer, Inc. Novobiocin/tetracycline and novobiocin/minocycline were tested in a 2.5:1 ratio to mimic the serum levels. (Vavra, J. J., 1967, Development of resistance to novobiocin, tetracycline, and novobiocin-tetracycline combinations in Staphylococcus aureus populations, J. Bacteriol 93(3):801). Compounds were tested across a concentration range consisting of 11 two-fold serial dilutions of test agent.
(§2) Stock solutions were prepared in sterile deionized water; novobiocin stock concentration was 1600 μg/mL and all other drugs stock solutions were prepared at 640 μg/mL. The stock solutions were allowed to sit at room temperature for one hour to auto-sterilize prior to use in the test. All compounds were in solution in water. The control agent was vancomycin hydrochloride, Sigma Chemical Lot # 015K0825.
(§3) The test organisms for the assay were 52 MSSA, 52 MRSA, 8 VISA, 7 VISE, and 3 LRSA isolates. Quality control strains included Staphylococcus aureus 0100 (ATCC 29213) and Enterococcus faecalis (ATCC 29212).
(§4) The MIC assay was performed according to published NCCLS guidelines. (National Committee for Clinical Laboratory Standards, Methods for Dilution Antimicrobial Susceptibility Tests for Bacteria that Grow Aerobically; Approved Standard-Sixth Edition, NCCLS Document M7-A6 [ISBN 1-56238-486-4], NCCLS, 940 West Valley Road, Suite 1400, Wayne, Pa. 19087-1898 USA, 2003). The test medium was Mueller Hinton II Broth for all organisms.

[2] = tested on: Vancomycin-intermediate Staphylococcus epidermidis Isolates; assay: MIC assay (NCCLS broth dilution), VISE isolates; format: cell-based; conditions: for MIC Range / MIC50: 4 VISE isolates, combinations at 2.5:1; for MIC / MIC50: Staphylococcus epidermidis; for MIC: read-out: Minimal Inhibitory Concentration
Experimental: as §1, §2, §3, §4

[3] = tested on: Unconfirmed Vancomycin-intermediate Staphylococcus epidermidis Isolates; assay: MIC assay (NCCLS broth dilution), unconfirmed VISE isolates; format: cell-based; conditions: for MIC Range / MIC50: 3 unconfirmed VISE isolates, combinations at 2.5:1; for MIC / MIC50: Staphylococcus epidermidis
Experimental: as §1, §2, §3, §4

[4] = tested on: Staphylococcus aureus 0100 (ATCC 29213); assay: MIC assay, quality control strain S. aureus ATCC 29213; format: cell-based
Experimental: as §1, §2, §3, §4

[5] = tested on: Staphylococcus aureus 0100 (ATCC 29213); conditions: S. aureus ATCC 29213; accepted quality control range; cited from earlier work
[6] = tested on: Enterococcus faecalis (ATCC 29212); conditions: E. faecalis ATCC 29212; accepted quality control range; cited from earlier work
[7] = Unconfirmed VISA isolate 2013, 03MAR06
[8] = Unconfirmed VISA isolate 2014, 03MAR06
[9] = Unconfirmed VISA isolate 2015, 03MAR06
[10] = Unconfirmed VISA isolate 2016, 03MAR06
[11] = Unconfirmed VISA isolate 2017, 03MAR06
[12] = Unconfirmed VISA isolate 2019, 03MAR06
[13] = Unconfirmed VISE isolate 2024, 09MAR06, read-out: Minimal Inhibitory Concentration
[14] = Unconfirmed VISE isolate 2025, 09MAR06, read-out: Minimal Inhibitory Concentration
[15] = Unconfirmed VISE isolate 2026, 03MAR06, read-out: Minimal Inhibitory Concentration
[16] = ATCC29213, S. aureus ATCC 29213, repeat runs 22FEB06-09MAR06, combinations at 2.5:1, read-out: Minimal Inhibitory Concentration, quality control

MIC Range [1] | MIC [1, 7] | MIC [1, 8] | MIC [1, 9] | MIC [1, 10] | MIC [1, 11] | MIC [1, 12] | MIC50 [1] | MIC Range [2] | MIC ([2]; VISE isolate 2020, 09MAR06) | MIC ([2]; VISE isolate 2021, 09MAR06) | MIC ([2]; VISE isolate 2022, 03MAR06) | MIC ([2]; VISE isolate 2023, 03MAR06) | MIC50 [2] | MIC Range [3] | MIC [3, 13] | MIC [3, 14] | MIC [3, 15] | MIC50 [3] | MIC [4, 16] | SMILES | further results
1 to 4 µg/mL | 2 µg/mL | 2 µg/mL | 1 µg/mL | 4 µg/mL | 2 µg/mL | 1 µg/mL | 2 µg/mL | 1 to 2 µg/mL | 2 µg/mL | 1 µg/mL | 2 µg/mL | 2 µg/mL | 2 µg/mL | 1 to 2 µg/mL | 1 µg/mL | 1 µg/mL | 2 µg/mL | 1 µg/mL | 4 µg/mL | CC(=O)NC[C@H]1CN(c2ccc(N3CCOCC3)c(F)c2)C(=O)O1 [LZD, linezolid] | CLSI QC Range (MIC) [5]: 1 to 4 µg/mL; CLSI QC Range (MIC) [6]: 1 to 4 µg/mL
≦.015-2 μg/ml | 0.12 µg/mL | 2 µg/mL | < 0.015 µg/mL | 0.06 µg/mL | 0.03 µg/mL | 2 µg/mL | 0.06 µg/mL | .06 to .25 µg/mL | 0.12 µg/mL | 0.06 µg/mL | 0.25 µg/mL | 0.06 µg/mL | 0.06 µg/mL | 0.12 to 0.25 µg/mL | 0.25 µg/mL | 0.12 µg/mL | 0.25 µg/mL | 0.25 µg/mL | 0.12 µg/mL | CN(C)c1ccc(O)c2c1C[C@H]1C[C@H]3[C@H](N(C)C)C(O)=C(C(N)=O)C(=O)[C@@]3(O)C(O)=C1C2=O [MI, minocycline] | –
≦.04-.15 μg/ml | 0.08 µg/mL | 0.15 µg/mL | ≤ 0.04 µg/mL | ≤ 0.04 µg/mL | 0.15 µg/mL | ≤ 0.04 µg/mL | ≤ 0.04 µg/mL | ≦.04-.08 μg/ml | 0.08 µg/mL | ≤ 0.04 µg/mL | ≤ 0.04 µg/mL | < 0.04 µg/mL | ≤ 0.04 µg/mL | ≦.04-5 μg/ml | 5 µg/mL | 0.312 µg/mL | ≤ 0.04 µg/mL | 0.312 µg/mL | – | CO[C@@H]1[C@@H](OC(N)=O)[C@@H](O)[C@H](Oc2ccc3c(O)c(NC(=O)c4ccc(O)c(CC=C(C)C)c4)c(=O)oc3c2C)OC1(C)C [NB, novobiocin] | –

Further lines, the molecule ahead of its results:

SMILES | MIC Range [1] | MIC [1, 7] | MIC [1, 8] | MIC [1, 9] | MIC [1, 10] | MIC [1, 11] | MIC [1, 12] | MIC50 [1] | MIC Range [2] | MIC ([2]; VISE isolate 2020, 09MAR06) | MIC ([2]; VISE isolate 2021, 09MAR06) | MIC ([2]; VISE isolate 2022, 03MAR06) | MIC ([2]; VISE isolate 2023, 03MAR06) | MIC50 [2] | MIC Range [3] | MIC [3, 13] | MIC [3, 14] | MIC [3, 15] | MIC50 [3] | MIC [4, 16] | further results
Cc1onc(-c2ccccc2)c1C(=O)N[C@@H]1C(=O)N2[C@@H]1SC(C)(C)[C@@H]2C(=O)O [OX, oxacillin] | – | 4 µg/mL | > 32 µg/mL | > 32 µg/mL | 4 µg/mL | 0.25 µg/mL | > 32 µg/mL | 4 µg/mL | 0.5 to 16 µg/mL | 8 µg/mL | 0.5 µg/mL | 16 µg/mL | 2 µg/mL | 2 µg/mL | – | > 32 µg/mL | 4 µg/mL | 32 µg/mL | 32 µg/mL | – | CLSI QC Range (MIC) [5]: 0.12 to 0.5 µg/mL; CLSI QC Range (MIC) [6]: 8 to 32 µg/mL
CN(C)[C@@H]1C(O)=C(C(N)=O)C(=O)[C@@]2(O)C(O)=C3C(=O)c4c(O)cccc4[C@@](C)(O)[C@H]3C[C@@H]12 [TE, tetracycline] | – | 0.5 µg/mL | > 16 µg/mL | 0.06 µg/mL | 0.5 µg/mL | 0.25 µg/mL | > 16 µg/mL | 0.5 µg/mL | – | > 16 µg/mL | 0.25 µg/mL | 2 µg/mL | 0.5 µg/mL | 0.5 µg/mL | 0.5 to 2 µg/mL | 2 µg/mL | 0.5 µg/mL | 2 µg/mL | 2 µg/mL | 0.5 µg/mL | –
CN[C@H](CC(C)C)C(=O)N[C@H]1C(=O)N[C@@H](CC(N)=O)C(=O)N[C@H]2C(=O)N[C@H]3C(=O)N[C@H](C(=O)N[C@H](C(=O)O)c4cc(O)cc(O)c4-c4cc3ccc4O)[C@H](O)c3ccc(c(Cl)c3)Oc3cc2cc(c3O[C@@H]2O[C@H](CO)[C@@H](O)[C@H](O)[C@H]2O[C@H]2C[C@](C)(N)[C@H](O)[C@H](C)O2)Oc2ccc(cc2Cl)[C@H]1O [VA, vancomycin] | 4 µg/mL | – | – | – | – | – | – | – | 8 µg/mL | – | – | – | – | – | 1 to 4 µg/mL | – | – | – | – | – | MIC [1]: 4 µg/mL; Minimal Inhibitory Concentration [1, 8]: 4 µg/mL; Minimal Inhibitory Concentration [1, 9]: 4 µg/mL; Minimal Inhibitory Concentration [1, 10]: 4 µg/mL; Minimal Inhibitory Concentration [1, 11]: 4 µg/mL; Minimal Inhibitory Concentration [1, 12]: 4 µg/mL; MIC [2]: 8 µg/mL; Minimal Inhibitory Concentration ([2]; VISE isolate 2020, 09MAR06): 8 µg/mL; Minimal Inhibitory Concentration ([2]; VISE isolate 2021, 09MAR06): 8 µg/mL; Minimal Inhibitory Concentration ([2]; VISE isolate 2023, 03MAR06): 8 µg/mL; MIC ([3]; read-out: Minimal Inhibitory Concentration, Unconfirmed VISE isolate 2024, 09MAR06): 2 µg/mL; MIC ([3]; read-out: Minimal Inhibitory Concentration, Unconfirmed VISE isolate 2025, 09MAR06): 4 µg/mL; MIC ([3]; read-out: Minimal Inhibitory Concentration, Unconfirmed VISE isolate 2026, 03MAR06): 4 µg/mL; MIC ([4]; ATCC29213, read-out: Minimal Inhibitory Concentration, quality control, S. aureus ATCC 29213, repeat runs 22FEB06-09MAR06, combinations at 2.5:1): 0.5 µg/mL; CLSI QC Range (MIC) [5]: 0.5 to 2 µg/mL; CLSI QC Range (MIC) [6]: 1 to 4 µg/mL
